Assay results published in PubChem BioAssay (NCI).
Several values for one entry are separate records, joined by “and”; a condition that tells them apart may be missing. Equal values may be shown once.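 Cells were grown in 96-well plates and exposed to each compound for 48 hours at five concentrations; endpoints were interpolated linearly between bracketing concentrations, or set to the highest concentration if not reached. GI50 marks 50% less growth. At the TGI there is no net growth.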

Legend:
Experiment in all cases: DTP human tumour cell line panel, 48 h
786-0 renal = test system: 786-0 renal
MALME-3M melanoma = test system: MALME-3M melanoma
RXF 393 renal = test system: RXF 393 renal
SF-268 CNS = test system: SF-268 CNS
NCI-H522 lung = test system: NCI-H522 lung
ACHN renal = test system: ACHN renal
NCI/ADR-RES ovarian = test system: NCI/ADR-RES ovarian
SK-MEL-5 melanoma = test system: SK-MEL-5 melanoma
SN12C renal = test system: SN12C renal
BT-549 breast = test system: BT-549 breast

Compound	GI50 (786-0 renal)	TGI (786-0 renal)	GI50 (MALME-3M melanoma)	TGI (MALME-3M melanoma)	GI50 (RXF 393 renal)	TGI (RXF 393 renal)	GI50 (SF-268 CNS)	TGI (SF-268 CNS)	GI50 (NCI-H522 lung)	TGI (NCI-H522 lung)	GI50 (ACHN renal)	TGI (ACHN renal)	GI50 (NCI/ADR-RES ovarian)	TGI (NCI/ADR-RES ovarian)	GI50 (SK-MEL-5 melanoma)	TGI (SK-MEL-5 melanoma)	GI50 (SN12C renal)	TGI (SN12C renal)	GI50 (BT-549 breast)	TGI (BT-549 breast)
Cn1cc(C2=C(c3cccc(Br)c3)C(=O)NC2=O)c2ccccc21	12.1 µM	> 25 µM	> 19.2 µM	> 25 µM	8.3 µM	> 25 µM	15.5 µM	> 25 µM	10.4 µM	> 25 µM	14.5 µM	> 25 µM	8.85 µM	> 25 µM	6.23 µM	22.3 µM	13.2 µM	> 25 µM	15.1 µM	> 25 µM
COc1cc2c3c(n(CCCOC(=O)C(F)(F)F)c(=O)c2cc1OC)-c1cc2c(cc1C3=O)OCO2	< 0.01 µM	< 0.0241 µM	0.159 µM	> 100 µM	0.593 µM	> 67.8 µM	–	> 32.2 µM	0.0167 µM	–	< 0.01 µM	–	< 0.0289 µM	0.137 µM	0.402 µM	1.24 µM	< 0.01 µM	0.0272 µM	0.202 µM	68.6 µM
O=C(Nc1ccc(-n2ccc3c(NC(=O)c4ccccc4)nccc32)cc1)Nc1ccc(Cl)c(Cl)c1	1.01 µM	2.36 µM	1.7 µM	3.78 µM	0.624 µM	1.96 µM	1.26 µM	5.97 µM	1.45 µM	3.7 µM	1.22 µM	4.29 µM	1.31 µM	4.52 µM	0.748 µM	2.2 µM	2.01 µM	9.08 µM	3.08 µM	17.9 µM
COc1ccc(O)c(C(=O)c2ccc(C(=O)N[C@H]3CCCNC[C@@H]3NC(=O)c3ccncc3)cc2)c1F	3.07 µM	> 20.2 µM	1.47 µM	> 25 µM	1.44 µM	15 µM	1.75 µM	> 20.6 µM	7.69 µM	> 25 µM	11.5 µM	> 25 µM	> 25 µM	> 25 µM	5.5 µM	> 17.8 µM	3.61 µM	> 25 µM	1.27 µM	13.7 µM
CC(C)(S)C(N)C(=O)O (configuration not stated)	> 5000 µM	> 5000 µM	1130 µM	3400 µM and > 100 µM	> 5000 µM	> 5000 µM	1740 µM	> 5000 µM	4600 µM	> 5000 µM	> 5000 µM	> 5000 µM	3650 µM	> 5000 µM	895 µM	2390 µM and > 100 µM	> 5000 µM	> 5000 µM	1570 µM	4110 µM and > 100 µM
Cc1nc2sc3c(c2c(=O)[nH]1)CCCC3	–	> 100 µM	–	> 100 µM	–	> 100 µM	–	> 100 µM	–	> 100 µM	–	> 100 µM	–	> 100 µM	–	> 100 µM	–	> 100 µM	–	> 100 µM
CCCOc1ccc2sc(NC(=O)OC)nc2c1	> 28.2 µM	> 100 µM	3.81 µM	> 100 µM	2.71 µM	> 29.3 µM	> 100 µM	> 100 µM	1.69 µM	> 25 µM	> 25.1 µM	> 100 µM	0.793 µM	> 47.5 µM	1.12 µM	> 100 µM	6.2 µM	> 100 µM	3.81 µM	> 100 µM
CN(CCO)c1ccc(N2Cc3ccccc3OC3=C2C(=O)c2c(O)ccc(O)c2C3=O)cn1	0.245 µM	0.74 µM	0.0833 µM	0.245 µM	0.0954 µM	0.27 µM	0.274 µM	0.938 µM	0.0323 µM	0.116 µM	0.0462 µM	0.179 µM	0.31 µM	1.34 µM	0.267 µM	0.717 µM	0.165 µM	0.355 µM	0.177 µM	0.386 µM
O=C(CSC1CCc2ccccc21)N/N=C/c1ccccc1O (configuration not stated)	6.87 µM	> 100 µM	6.4 µM	42.3 µM	5.27 µM	61.3 µM	3.33 µM	> 100 µM	4.98 µM	26.4 µM	2.67 µM	20 µM	3.44 µM	35 µM	1.85 µM	5.17 µM	4.67 µM	67.4 µM	5.46 µM	34.2 µM
CCN(Cc1ccccc1C)c1ccc(CO)c(Cl)c1	15 µM	30.9 µM	15.6 µM	32 µM	6.3 µM	23.8 µM	16.1 µM	31.8 µM	13.4 µM	28.8 µM	15.7 µM	39.4 µM	14.5 µM	43.8 µM	4.77 µM	11.9 µM	12.5 µM	25.9 µM	15.8 µM	30.1 µM
O=C(c1ccc(/C=C/c2n[nH]c3ccccc23)cc1)N1CCNCC1	9.53 µM and 7.98 µM	> 10 µM and 23 µM	1.52 µM and 1.16 µM	3.09 µM and 9.38 µM	2.66 µM and 1.99 µM	> 10 µM and 6.94 µM	8.61 µM and 4.34 µM	> 10 µM and 18.9 µM	1.72 µM and 11 µM	3.52 µM and 26.5 µM	> 10 µM and 4.05 µM	> 10 µM and 25.3 µM	> 10 µM and 15.8 µM	> 10 µM and 36.7 µM	6.9 µM	18.5 µM	> 10 µM and 2.43 µM	> 10 µM and 19.4 µM	5.58 µM and 4.14 µM	> 10 µM and 13.6 µM
CC[C@H]1CN2CCc3cc(OC)c(OC)cc3[C@@H]2C[C@@H]1C[C@H]1NCCc2c1[nH]c1ccc(O)cc21	0.0246 µM and 0.0421 µM	–	0.047 µM and 0.336 µM	0.113 µM and 0.744 µM and 0.184 µM	0.0194 µM and 0.0351 µM	0.0629 µM and 0.252 µM and 0.183 µM	0.0315 µM and 0.0253 µM	0.0931 µM and 0.075 µM and 0.263 µM	0.00347 µM and 0.00354 µM	0.0164 µM and 0.0108 µM	0.0782 µM and 0.121 µM	0.57 µM and 0.511 µM and 1.5 µM	0.0161 µM	–	0.0234 µM and 0.14 µM	0.0553 µM and 0.294 µM and 0.0304 µM	0.0228 µM and 0.0349 µM	0.0741 µM and 0.136 µM and 0.19 µM	0.558 µM	0.602 µM
O=C1NC(=O)/C(=C\c2ccccc2)C2=C1CCCC2	7.6 µM	20.2 µM	2.53 µM	9.11 µM	6.52 µM	59.8 µM	4.06 µM	14.8 µM	13.7 µM	32.1 µM	5.78 µM	18.6 µM	7.54 µM	19.2 µM	1.81 µM	3.52 µM	3.03 µM	11 µM	4.13 µM	16.4 µM
O=C1NC(=O)C(c2cccc([N+](=O)[O-])c2)=C1Nc1cc(Cl)c(O)c(Cl)c1	> 23.3 µM	> 25 µM	> 25 µM	> 25 µM	> 21.7 µM	> 25 µM	> 25 µM	> 25 µM	> 16.5 µM	> 25 µM	> 25 µM	> 25 µM	> 25 µM	> 25 µM	24.4 µM	> 25 µM	> 25 µM	> 25 µM	> 16.2 µM	> 25 µM
CC(=O)Oc1ccccc1C(=O)Nc1ncc([N+](=O)[O-])s1	2.35 µM	–	1.48 µM	–	2.06 µM	13.1 µM and 29.7 µM	3.35 µM	> 79.7 µM	1.63 µM	6.2 µM and 21.7 µM	2.74 µM	11.3 µM and > 100 µM	2.29 µM	> 85.2 µM	1.5 µM	3.7 µM and 33 µM	1.87 µM	21.2 µM and 90.9 µM	1.97 µM	–
CN1C(=O)/C(=C/c2c(Cl)n(C)c3ccccc23)c2ccccc21	3.09 µM	–	7.07 µM	–	7.89 µM and 1.56 µM	3.84 µM	9.2 µM	–	5.12 µM	–	4.85 µM and 1.7 µM	3.11 µM	1.92 µM	5.17 µM	2.1 µM and 1.96 µM	6.51 µM and 3.46 µM	1.82 µM	9.33 µM	3.31 µM	9.25 µM
O=S(=O)(Nc1ccc(F)cc1F)c1ccc(-c2cnc(C3CC3)o2)cc1	0.906 µM	63 µM	0.615 µM	34.2 µM	0.595 µM	7.05 µM	4.82 µM	> 70.4 µM	0.347 µM	16 µM	1.62 µM	31.2 µM	0.394 µM	15 µM	0.666 µM	12.9 µM	0.878 µM	39.8 µM	0.597 µM	24 µM
O=C(O)CC(NC(=O)CP(=O)(O)O)C(=O)O (configuration not stated)	71 µM	> 6000 µM	–	> 8470 µM	90.5 µM	> 10000 µM	95.8 µM	> 10000 µM	78.3 µM	9910 µM	–	> 10000 µM	–	> 10000 µM	–	> 10000 µM	–	> 9020 µM	–	> 10000 µM
COc1cc(OC)c(/C=C/c2c3ccccc3cc[n+]2C)c(OC)c1	7.37 µM	> 100 µM	2.32 µM	15.4 µM	4.99 µM	> 51.3 µM	2.54 µM	19.3 µM	1.52 µM	6.49 µM	10.9 µM	> 100 µM	> 85.5 µM	> 100 µM	0.642 µM	2.21 µM	2.31 µM	18.6 µM	1.58 µM	21.8 µM
OCCCNc1nccc(-c2c(-c3ccc(F)cc3)nn3cc(C(F)(F)F)ccc23)n1	10.2 µM	> 25 µM	14.8 µM	> 25 µM	5.86 µM	19.1 µM	16.3 µM	> 25 µM	16.7 µM	> 25 µM	9.23 µM	> 25 µM	8.25 µM	> 25 µM	8.4 µM	> 25 µM	13.3 µM	> 25 µM	> 25 µM	> 25 µM
N=C(N)c1ccc2nc(-c3cc(CC(=O)N[C@@H](CC(=O)O)C(=O)O)cc(-c4cc(S(N)(=O)=O)ccc4O)c3O)[nH]c2c1	> 100 µM	> 100 µM	> 100 µM	> 100 µM	> 100 µM	> 100 µM	> 100 µM	> 100 µM	> 100 µM	> 100 µM	> 100 µM	> 100 µM	> 100 µM	> 100 µM	> 100 µM	> 100 µM	> 100 µM	> 100 µM	> 100 µM	> 100 µM
NC(=O)c1cc(S(=O)(=O)Nc2nnc(-c3ccccc3)c(-c3ccccc3)n2)c(SCc2ccccc2)cc1Cl	> 100 µM	> 100 µM	> 100 µM	> 100 µM	75.3 µM	> 100 µM	> 87.5 µM	> 100 µM	> 44 µM	> 68.3 µM	> 100 µM	> 100 µM	> 100 µM	> 100 µM	> 79.6 µM	> 100 µM	> 50.8 µM	> 82.6 µM	> 53.1 µM	> 89.7 µM
CCOC(=O)c1c(NC(=O)c2cccc(C(F)(F)F)c2)sc2c(CN(C)C)c(O)ccc12	2.33 µM	6.1 µM	1.71 µM	3.22 µM	1.81 µM	3.76 µM	4.69 µM	24.1 µM	5.03 µM	28 µM	4.49 µM	15.8 µM	8.82 µM	21 µM	2.36 µM	5.72 µM	7.68 µM	20.4 µM	12.2 µM	26.9 µM
C#COc1cccc(Nc2c(C#N)cnc3ncc(NC(=O)CCl)cc23)c1	36.6 µM	> 62.5 µM	55.4 µM	> 62.5 µM	> 62.5 µM	> 62.5 µM	20.6 µM	> 62.5 µM	9.77 µM	21.4 µM	22.9 µM	> 62.5 µM	> 62.5 µM	> 62.5 µM	> 62.5 µM	> 62.5 µM	16.2 µM	> 62.5 µM	> 62.5 µM	> 62.5 µM
CCn1sc2ccccc2c1=O	–	6.87 µM	–	39.6 µM	–	11.7 µM	–	34.6 µM	–	5.32 µM	–	20.5 µM	–	69.3 µM	–	25 µM	–	22.7 µM	–	25.7 µM
O=C(O)c1ccc(OCc2ccccc2)c(Cl)c1	–	> 100 µM	–	> 100 µM	–	> 100 µM	–	> 100 µM	–	> 100 µM	–	> 100 µM	–	> 100 µM	–	> 100 µM	–	> 100 µM	–	> 100 µM
O=CN1CCN(CC(O)CN2CCCCC2)CC1 (configuration not stated)	–	> 100 µM	–	> 100 µM	–	> 100 µM	–	> 100 µM	–	> 100 µM	–	> 100 µM	–	> 100 µM	–	> 100 µM	–	> 100 µM	–	> 100 µM
